A word on the GI50: it is the concentration at which growth is held to half of that of the control. The low end stands for more potent growth inhibition, the high end for less potent growth inhibition. What is called IC50 is the concentration that gives 50% inhibition. A low value points to greater potency.

Structures are written as SMILES. Some results are limits rather than exact numbers.

The first experiment relates to HCT-116. Kind of experiment: Antiproliferative activity against human HCT-116 cells after 72 hrs by CellTiter Glo assay. In kind it is functional, cell-based. The settings on record: Homo sapiens, HCT-116; time 72 hrs. A general note: In ATP-based viability assays light output follows the ATP content of the culture.
`COc1ccc(N(C)c2nc(C)nc3ccccc23)cc1/C=C/C(=O)NOC1CCCCO1` (configuration not stated) returned a concentration for 50% growth inhibition (GI50) of 12.5 nM.

`COc1ccc(N(C)c2cc(C)nc3ccccc23)cc1/C=C/C(=O)NOC1CCCCO1` (configuration not stated) showed a GI50 of 30.3 nM.

In turn, `COc1ccc(Cn2ccc3ccc(C(=O)NO)cc32)cc1` had a 50% growth inhibitory concentration (GI50) of 2600 nM.

On to `COc1ccc(/C=C\c2cc(OC)c(OC)c(OC)c2)cc1O` [COMBRETASTATIN A4], for which the GI50 is 2.4 nM.

The test system of the next experiment is K562. Kind of experiment: Antiproliferative activity against human K562 cells after 72 hrs by CellTiter Glo assay. In kind it is functional, cell-based. The settings on record: K562, 72 h.
For the molecule `COc1ccc(Cn2ccc3ccc(C(=O)NO)cc32)cc1`, the IC50 amounted to 2010 nM.

Another experiment relates to HT-29. Kind of experiment: Antiproliferative activity against human HT-29 cells after 72 hrs by CellTiter Glo assay. As to conditions: HT-29, 72 h. In kind it is functional, cell-based.
In turn, `COc1ccc(Cn2ccc3ccc(C(=O)NO)cc32)cc1` showed an IC50 greater than 10000 nM.

As for `COc1ccc(/C=C\c2cc(OC)c(OC)c(OC)c2)cc1O` [COMBRETASTATIN A4], the IC50 was greater than 10000 nM.

Another experiment deals with SK-OV-3. Kind of experiment: Antiproliferative activity against human SK-OV-3 cells after 72 hrs by CellTiter Glo assay. The settings on record: SK-OV-3, 72 h. The class given is functional, cell-based.
With `COc1ccc(/C=C\c2cc(OC)c(OC)c(OC)c2)cc1O` [COMBRETASTATIN A4], the half-maximal inhibitory concentration (IC50) came out at 6 nM.

The test system of the next experiment is A549. Put plainly: Antiproliferative activity against human A549 cells after 72 hrs by CellTiter Glo assay. The settings on record: A549, 72 h. The class given is functional, cell-based.
On to `COc1ccc(Cn2ccc3ccc(C(=O)NO)cc32)cc1`, for which the IC50 was determined as 2000 nM.

In another experiment the test system is MIA PaCa-2. Put plainly: Antiproliferative activity against human MIA PaCa-2 cells after 72 hrs by CellTiter Glo assay. The class given is functional, cell-based. As to conditions: MIA PaCa-2, 72 h.
`COc1ccc(Cn2ccc3ccc(C(=O)NO)cc32)cc1` had an IC50 greater than 20000 nM.

Molecule `COc1ccc(/C=C\c2cc(OC)c(OC)c(OC)c2)cc1O` [COMBRETASTATIN A4] came in with an IC50 of 8 nM.

The test system of a further experiment is K562. Put plainly: Antiproliferative activity against imatinib-resistant human K562 cells over expressing MDR1 after 72 hrs by CellTiter Glo assay. The class given is functional, cell-based. As to conditions: K562, 72 h.
With `COc1ccc(Cn2ccc3ccc(C(=O)NO)cc32)cc1`, the IC50 came to 2200 nM.

On to `COc1ccc(/C=C\c2cc(OC)c(OC)c(OC)c2)cc1O` [COMBRETASTATIN A4], for which half-maximal inhibition (IC50) was put at 25 nM.

In a further experiment the test system is NCI-N87. Kind of experiment: Antiproliferative activity against human NCI-N87 cells after 72 hrs by CellTiter Glo assay. In kind it is functional, cell-based. The settings on record: NCI-N87, 72 h.
`COc1ccc(Cn2ccc3ccc(C(=O)NO)cc32)cc1` returned a half-inhibitory concentration (IC50) of 1500 nM.

`COc1ccc(/C=C\c2cc(OC)c(OC)c(OC)c2)cc1O` [COMBRETASTATIN A4] gave a half-inhibitory concentration (IC50) of 11 nM.

Another experiment has as its system MCF7. Kind of experiment: Antiproliferative activity against human MCF7 cells after 72 hrs by CellTiter Glo assay. The class given is functional, cell-based. The settings on record: MCF7, 72 h.
On to `COc1ccc(Cn2ccc3ccc(C(=O)NO)cc32)cc1`, for which inhibition was half-maximal at 2980 nM (IC50).

`COc1ccc(/C=C\c2cc(OC)c(OC)c(OC)c2)cc1O` [COMBRETASTATIN A4]: the IC50 was found to be 172 nM.

The values are drawn from ChEMBL document CHEMBL5113481, “Design, synthesis and biological evaluation of quinoline-2-carbonitrile-based hydroxamic acids as dual tubulin polymerization and histone deacetylases inhibitors” (Eur J Med Chem, 2022).
